Earlier results in US9034614B2, “Method of preparing alkyl butyrate from fermented liquid using microorganisms” (priority 2010, dated 2015).
In brackets after ≈: the same amount, converted by molar mass. Read-outs that look alike come from different tables or passages of the source.

## CCCC(=O)OCC [Ethyl butyrate]
  Solubility in water: 4900 µg/mL (≈ 42.2 mM)

## CCO [Ethanol, reference compound]
Stated in words
  Solubility in water: Miscible

## CCCCOC(=O)CCC [Butyl butyrate]
Stated in words
  Solubility in water: Insoluble
